Target: human GSK3β (Homo sapiens, UniProt P49841)
Assay: Screening for GSK3 inhibitory activity using a cell-free assay
Type: biochemical
Details: read-out: IC50 with respect to GSK3
Procedure: This amount represents the amount of radiolabeled phosphate incorporated into the peptide substrate.
The captured radiolabeled peptide substrate can be quantitated in a scintillation counter using known methods. […] If an inhibitor is present during the reaction, GSK3 activity will be reduced, and a smaller quantity of radiolabeled phosphate will thus be incorporated into the peptide substrate.
Pyrimidine and pyridine compounds of the present invention were dissolved in DMSO, then tested for inhibition of human GSK3β (the nucleotide sequence for human GSK3β appears in GenBank under Accession No. L33801).
While the reaction was proceeding, streptavidin-coated Labsystems “Combiplate 8” capture plates (Labsystems, Helsinki, Finland) were blocked by incubating them with 300 μl/well of PBS containing 1% bovine serum albumin for at least one hour at room temperature. The blocking solution was then removed by aspiration, and the capture plates were filled with 100 ul/well of stopping reagent (50 μM ATP/20 mM EDTA).
When the three hour enzyme reaction was finished, triplicate 100 μl aliquots of each reaction mix were transferred to three wells containing stopping solution, one well on each of the three capture plates, and the well contents were mixed well. […] Finally, 200 μl of Microscint-20 scintillation fluid was added to each well of the plate. The plates were coated with plate sealers, then left on a shaker for 30 minutes. Each capture plate was counted in a Packard TopCount scintillation counter (Meridian, Conn.) and the results were plotted as a function of compound concentration.

Chain of human GSK3β (P49841 whole entry): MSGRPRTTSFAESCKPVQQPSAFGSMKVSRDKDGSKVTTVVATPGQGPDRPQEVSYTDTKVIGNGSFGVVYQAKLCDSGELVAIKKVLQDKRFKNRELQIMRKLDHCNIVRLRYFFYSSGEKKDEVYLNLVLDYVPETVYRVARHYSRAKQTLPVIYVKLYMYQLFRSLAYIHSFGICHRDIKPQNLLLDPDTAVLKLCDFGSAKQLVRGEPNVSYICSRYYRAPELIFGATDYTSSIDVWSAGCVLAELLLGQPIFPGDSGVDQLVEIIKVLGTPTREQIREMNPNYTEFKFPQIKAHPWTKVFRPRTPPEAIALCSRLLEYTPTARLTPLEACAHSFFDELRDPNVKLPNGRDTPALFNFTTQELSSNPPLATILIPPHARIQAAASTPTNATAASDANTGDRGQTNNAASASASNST

## COCCNc1nc(NCCNc2ccc([N+](=O)[O-])cn2)ccc1[N+](=O)[O-] [{6-[(2-methoxyethyl)amino]-5-nitro(2-pyridyl)}{2-[(5-nitro(2-pyridyl))amino]ethyl}amine]
  IC50: ≤ 10 µM

## NC(=O)c1ccc(-c2ccnc(NCCCOc3cccc(C(F)(F)F)c3)n2)cc1 [4-[2-({3-[3-(trifluoromethyl)phenoxy]propyl}amino)pyrimidin-4-yl]benzamide]
  IC50: ≤ 1 µM

## Clc1ccc(-c2ccnc(NCCNc3ccccn3)n2)c(Cl)c1 [[4-(2,4-dichlorophenyl)pyrimidin-2-yl][2-(2-pyridylamino)ethyl]amine]
  IC50: ≤ 10 µM

## NS(=O)(=O)c1ccc(CNC(=O)c2ccc(-c3ccnc(NCCNc4ccc([N+](=O)[O-])cn4)n3)cc2)cc1 [{4-[2-({2-[(5-nitro(2-pyridyl))-amino]ethyl}amino)pyrimidin-4-yl]phenyl}-N-[(4-sulfamoylphenyl)methyl]carboxamide]
  IC50: ≤ 10 µM

## NC(=O)c1ccc(-c2ccnc(NCc3ccc(N)cc3)n2)cc1 [4-(2-{[(4-aminophenyl)methyl]amino}-pyrimidin-4-yl)benzamide]
  IC50: ≤ 10 µM

## O=C(NCc1ccccc1)c1ccc(-c2ccnc(NCCNc3ccc([N+](=O)[O-])cn3)n2)cc1 [{4-[2-({2-[(5-nitro(2-pyridyl))amino]ethyl}amino)pyrimidin-4-yl]phenyl}-N-benzylcarboxamide]
  IC50: ≤ 10 µM

## N#Cc1ccc(-c2nc(NCCNc3ccc([N+](=O)[O-])cn3)ncc2C(=O)OCCN(CCO)CCO)cc1
  IC50: ≤ 1 µM

## Nc1nc(NCCNc2ncc(-n3cnc(-c4ccccc4)c3)c(-c3ccc(Cl)cc3Cl)n2)ccc1[N+](=O)[O-] [{2-[(6-amino-5-nitro(2-pyridyl))amino]ethyl}[4-(2,4-dichlorophenyl)-5-(4-phenylimidazolyl)pyrimidin-2-yl]amine]
  IC50: ≤ 1 µM

## N#Cc1ccc(CNc2nccc(-c3ccc(C(N)=O)cc3)n2)cc1 [4-(2-{[(4-cyanophenyl)methyl]amino}pyrimidin-4-yl)benzamide]
  IC50: ≤ 10 µM

## CCCCOc1ccc(-c2nc(NCCNc3ccc([N+](=O)[O-])cn3)ncc2C(=O)OCC)cc1 [ethyl 4-(4-butoxyphenyl)-2-({2-[(5-nitro(2-pyridyl))amino]ethyl}amino)pyrimidine-5-carboxylate]
  IC50: ≤ 10 µM

## CN(C)CCN(CCNc1ccc([N+](=O)[O-])cn1)c1ncc(-n2ccnc2)c(-c2ccc(Cl)cc2Cl)n1 [[4-(2,4-dichlorophenyl)-5-imidazolylpyrimidin-2-yl][2-(dimethylamino)ethyl]{2-[(5-nitro(2-pyridyl))amino]ethyl}amine]
  IC50: ≤ 1 µM

## O=C(O)c1c(-c2ccc([N+](=O)[O-])cc2)nc(NCCNc2ccc([N+](=O)[O-])cn2)nc1-c1ccc([N+](=O)[O-])cc1 [4,6-bis(4-nitrophenyl)-2-({2-[(5-nitro(2-pyridyl))amino]ethyl}amino)pyrimidine-5-carboxylic acid]
  IC50: ≤ 10 µM

## N#Cc1cnc(NCCNc2nccc(-c3ccc(C(N)=O)cc3)n2)nc1N [4-[2-({2-[(4-amino-5-cyano-pyrimidin-2-yl)amino]ethyl}amino)pyrimidin-4-yl]benzamide]
  IC50: ≤ 1 µM

## Cc1c[nH]c(-c2cnc(NCCNc3ccc([N+](=O)[O-])c(N)n3)nc2-c2ccc(F)cc2Cl)n1 [{2-[(6-amino-5-nitro(2-pyridyl))amino]ethyl}[4-(2-chloro-4-fluorophenyl)-5-(4-methylimidazol-2-yl)pyrimidin-2-yl]amine]
  IC50: ≤ 1 µM

## CCOC(=O)c1cnc(NCCNc2ccc([N+](=O)[O-])cn2)nc1NCc1ccccc1Cl [ethyl 4-{[(2-chlorophenyl)methyl]amino}-2-({2-[(5-nitro(2-pyridyl))amino]ethyl}amino)pyrimidine-5-carboxylate]
  IC50: ≤ 10 µM

## COc1cccc(OCCCNc2nccc(-c3ccc(C(N)=O)cc3)n2)c1 [4-(2-{[3-(3-methoxyphenoxy)propyl]-amino}pyrimidin-4-yl)benzamide]
  IC50: ≤ 10 µM

## N#Cc1ccc(-c2ccnc(NCCc3ccccn3)n2)cc1 [4-{2-[(2-(2-pyridyl)ethyl)-amino]pyrimidin-4-yl}benzenecarbonitrile]
  IC50: ≤ 10 µM

Reference: US7425557B2, “Inhibitors of glycogen synthase kinase 3” (Novartis Vaccines and Diagnostics, Inc., priority 1998, dated 2008)
